Measured values taken from PMC3399817 (PLoS ONE, 2012).

Tests used:
Experiment in all cases: KINOMEscan
Assay type in all cases: binding
CLK4 = target: T1, CLK4 (Homo sapiens, UniProt Q9HAZ1); details: CLK4, 1 uM
T1 construct: purchased Ambit KINOMEscan (DiscoverX)
How it was run: (§1)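 Kinases were scored for inhibited substrate binding in the presence of 1 μM compound; this served as the first-pass selectivity screen.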

BMPR1B = target: T2, BMPR1B (Homo sapiens, UniProt O00238); details: 1 uM
T2 construct: purchased Ambit KINOMEscan (DiscoverX)
How it was run: as §1

NEK5 = target: T3, NEK5 (Homo sapiens, UniProt Q6P3R8); details: NEK5, 1 uM
T3 construct: purchased Ambit KINOMEscan (DiscoverX)
How it was run: as §1

EPHA6 = target: T4, EPHA6 (Homo sapiens, UniProt Q9UF33); details: EPHA6, 1 uM
T4 construct: purchased Ambit KINOMEscan (DiscoverX)
How it was run: as §1

MKNK1 = target: T5, MKNK1 (Homo sapiens, UniProt Q9BUB5); details: MKNK1, 1 uM
T5 construct: purchased Ambit KINOMEscan (DiscoverX)
How it was run: as §1

CIT = target: T6, CIT (Homo sapiens, UniProt O14578); details: 1 uM
T6 construct: purchased Ambit KINOMEscan (DiscoverX)
How it was run: as §1

PRKCE = target: T7, PRKCE (Homo sapiens, UniProt Q02156); details: 1 uM
T7 construct: purchased Ambit KINOMEscan (DiscoverX)
How it was run: as §1

MARK2 = target: T8, MARK2 (Homo sapiens, UniProt Q7KZI7); details: MARK2, 1 uM
T8 construct: purchased Ambit KINOMEscan (DiscoverX)
How it was run: as §1

ALK = target: T9, ALK (Homo sapiens, UniProt Q9UM73); details: 1 uM
T9 construct: purchased Ambit KINOMEscan (DiscoverX)
How it was run: as §1

CAMK1 = target: T10, CAMK1 (Homo sapiens, UniProt Q14012); details: CAMK1, 1 uM
T10 construct: purchased Ambit KINOMEscan (DiscoverX)
How it was run: as §1

ROCK1 = target: T11, ROCK1 (Homo sapiens, UniProt Q13464); details: for % binding compared to no inhibitor control: ROCK1, 1 uM
T11 construct: purchased Ambit KINOMEscan (DiscoverX)
How it was run: as §1

CDC2L1 = target: T12, CDC2L1 (Homo sapiens, UniProt P21127); details: CDC2L1, 1 uM
T12 construct: purchased Ambit KINOMEscan (DiscoverX)
How it was run: as §1

CDKL3 = target: T13, CDKL3 (Homo sapiens, UniProt Q8IVW4); details: CDKL3, 1 uM
T13 construct: purchased Ambit KINOMEscan (DiscoverX)
How it was run: as §1

DMPK2 = target: T14, DMPK2 (Homo sapiens, UniProt Q6DT37); details: DMPK2, 1 uM
T14 construct: purchased Ambit KINOMEscan (DiscoverX)
How it was run: as §1

STK39 = target: T15, STK39 (Homo sapiens, UniProt Q9UEW8); details: STK39, 1 uM
T15 construct: purchased Ambit KINOMEscan (DiscoverX)
How it was run: as §1

CSNK1G3 = target: T16, CSNK1G3 (Homo sapiens, UniProt Q9Y6M4); details: CSNK1G3, 1 uM
T16 construct: purchased Ambit KINOMEscan (DiscoverX)
How it was run: as §1

ERK4 = target: T17, ERK4 (Homo sapiens, UniProt P31152); details: ERK4, 1 uM
T17 construct: purchased Ambit KINOMEscan (DiscoverX)
How it was run: as §1

STK16 = target: T18, STK16 (Homo sapiens, UniProt O75716); details: STK16, 1 uM
T18 construct: purchased Ambit KINOMEscan (DiscoverX)
How it was run: as §1

MAPKAPK5 = target: T19, MAPKAPK5 (Homo sapiens, UniProt Q8IW41); details: MAPKAPK5, 1 uM
T19 construct: purchased Ambit KINOMEscan (DiscoverX)
How it was run: as §1

MEK2 = target: T20, MEK2 (Homo sapiens, UniProt P36507); details: MEK2, 1 uM
T20 construct: purchased Ambit KINOMEscan (DiscoverX)
How it was run: as §1

MYO3A = target: T21, MYO3A (Homo sapiens, UniProt Q8NEV4); details: 1 uM
T21 construct: purchased Ambit KINOMEscan (DiscoverX)
How it was run: as §1

ARK5 = target: T22, ARK5 (Homo sapiens, UniProt O60285); details: ARK5, 1 uM
T22 construct: purchased Ambit KINOMEscan (DiscoverX)
How it was run: as §1

FGFR3 = target: T23, FGFR3 (Homo sapiens, UniProt P22607); details: FGFR3, 1 uM
T23 construct: purchased Ambit KINOMEscan (DiscoverX)
How it was run: as §1

BRAF = target: T24, BRAF (Homo sapiens, UniProt P15056); details: 1 uM
T24 construct: purchased Ambit KINOMEscan (DiscoverX)
How it was run: as §1

PIK3CA = target: T25, PIK3CA (Homo sapiens, UniProt P42336); details: 1 uM
T25 construct: purchased Ambit KINOMEscan (DiscoverX)
How it was run: as §1

WEE2 = target: T26, WEE2 (Homo sapiens, UniProt P0C1S8); details: WEE2, 1 uM
T26 construct: purchased Ambit KINOMEscan (DiscoverX)
How it was run: as §1

STK35 = target: T27, STK35 (Homo sapiens, UniProt Q8TDR2); details: STK35, 1 uM
T27 construct: purchased Ambit KINOMEscan (DiscoverX)
How it was run: as §1

ERK5 = target: T28, ERK5 (Homo sapiens, UniProt Q13164); details: ERK5, 1 uM
T28 construct: purchased Ambit KINOMEscan (DiscoverX)
How it was run: as §1

ASK2 = target: T29, ASK2 (Homo sapiens, UniProt O95382); details: ASK2, 1 uM
T29 construct: purchased Ambit KINOMEscan (DiscoverX)
How it was run: as §1

MEK4 = target: T30, MEK4 (Homo sapiens, UniProt P45985); details: MEK4, 1 uM
T30 construct: purchased Ambit KINOMEscan (DiscoverX)
How it was run: as §1

PIP5K1A = target: T31, PIP5K1A (Homo sapiens, UniProt Q99755); details: 1 uM
T31 construct: purchased Ambit KINOMEscan (DiscoverX)
How it was run: as §1

PLK3 = target: T32, PLK3 (Homo sapiens, UniProt Q9H4B4); details: PLK3, 1 uM
T32 construct: purchased Ambit KINOMEscan (DiscoverX)
How it was run: as §1

LIMK2 = target: T33, LIMK2 (Homo sapiens, UniProt P53671); details: LIMK2, 1 uM
T33 construct: purchased Ambit KINOMEscan (DiscoverX)
How it was run: as §1

MAP3K2 = target: T34, MAP3K2 (Homo sapiens, UniProt Q9Y2U5); details: MAP3K2, 1 uM
T34 construct: purchased Ambit KINOMEscan (DiscoverX)
How it was run: as §1

PRKX = target: T35, PRKX (Homo sapiens, UniProt P51817); details: 1 uM
T35 construct: purchased Ambit KINOMEscan (DiscoverX)
How it was run: as §1

RIPK1 = target: T36, RIPK1 (Homo sapiens, UniProt Q13546); details: RIPK1, 1 uM
T36 construct: purchased Ambit KINOMEscan (DiscoverX)
How it was run: as §1

CLK3 = target: T37, CLK3 (Homo sapiens, UniProt P49761); details: CLK3, 1 uM
T37 construct: purchased Ambit KINOMEscan (DiscoverX)
How it was run: as §1

MAP3K1 = target: T38, MAP3K1 (Homo sapiens, UniProt Q13233); details: MAP3K1, 1 uM
T38 construct: purchased Ambit KINOMEscan (DiscoverX)
How it was run: as §1

DRAK1 = target: T39, DRAK1 (Homo sapiens, UniProt Q9UEE5); details: DRAK1, 1 uM
T39 construct: purchased Ambit KINOMEscan (DiscoverX)
How it was run: as §1

PDGFRA = target: T40, PDGFRA (Homo sapiens, UniProt P16234); details: 1 uM
T40 construct: purchased Ambit KINOMEscan (DiscoverX)
How it was run: as §1

T11 sequence (Q13464 whole entry): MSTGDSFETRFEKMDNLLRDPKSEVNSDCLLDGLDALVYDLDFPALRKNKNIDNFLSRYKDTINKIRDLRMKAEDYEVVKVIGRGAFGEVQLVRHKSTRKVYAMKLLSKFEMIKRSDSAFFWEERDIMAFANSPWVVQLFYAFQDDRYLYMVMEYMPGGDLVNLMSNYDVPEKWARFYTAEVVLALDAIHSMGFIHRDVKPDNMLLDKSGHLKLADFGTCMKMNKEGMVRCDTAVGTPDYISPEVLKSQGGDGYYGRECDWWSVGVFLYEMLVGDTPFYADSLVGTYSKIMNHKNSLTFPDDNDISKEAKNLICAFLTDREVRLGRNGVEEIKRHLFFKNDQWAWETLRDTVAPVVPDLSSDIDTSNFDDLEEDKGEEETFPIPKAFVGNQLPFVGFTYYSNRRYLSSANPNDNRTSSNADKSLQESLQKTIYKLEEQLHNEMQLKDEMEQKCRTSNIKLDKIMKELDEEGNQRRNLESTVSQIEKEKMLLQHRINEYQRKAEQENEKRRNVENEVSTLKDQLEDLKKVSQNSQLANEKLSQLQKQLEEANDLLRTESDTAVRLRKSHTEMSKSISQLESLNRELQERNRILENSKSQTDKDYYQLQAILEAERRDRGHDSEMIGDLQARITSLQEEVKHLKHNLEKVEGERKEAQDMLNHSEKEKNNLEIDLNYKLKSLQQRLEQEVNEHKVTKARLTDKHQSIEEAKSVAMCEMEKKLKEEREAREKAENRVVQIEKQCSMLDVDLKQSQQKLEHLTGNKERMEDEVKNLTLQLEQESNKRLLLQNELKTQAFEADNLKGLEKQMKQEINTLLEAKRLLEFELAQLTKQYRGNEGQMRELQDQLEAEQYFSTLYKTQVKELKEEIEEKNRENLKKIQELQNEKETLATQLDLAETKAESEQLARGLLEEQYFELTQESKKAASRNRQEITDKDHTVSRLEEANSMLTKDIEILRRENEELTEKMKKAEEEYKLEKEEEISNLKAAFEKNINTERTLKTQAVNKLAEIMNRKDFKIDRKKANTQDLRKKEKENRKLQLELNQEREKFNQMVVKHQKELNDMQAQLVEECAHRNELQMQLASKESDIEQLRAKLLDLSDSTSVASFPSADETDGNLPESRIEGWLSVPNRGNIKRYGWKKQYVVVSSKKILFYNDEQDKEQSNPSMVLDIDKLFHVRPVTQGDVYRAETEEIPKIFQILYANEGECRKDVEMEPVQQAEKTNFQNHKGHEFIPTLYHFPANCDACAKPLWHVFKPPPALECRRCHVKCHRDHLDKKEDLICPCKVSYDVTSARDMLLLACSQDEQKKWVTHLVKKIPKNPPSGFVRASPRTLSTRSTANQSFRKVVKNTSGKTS
T5 sequence (Q9BUB5 whole entry): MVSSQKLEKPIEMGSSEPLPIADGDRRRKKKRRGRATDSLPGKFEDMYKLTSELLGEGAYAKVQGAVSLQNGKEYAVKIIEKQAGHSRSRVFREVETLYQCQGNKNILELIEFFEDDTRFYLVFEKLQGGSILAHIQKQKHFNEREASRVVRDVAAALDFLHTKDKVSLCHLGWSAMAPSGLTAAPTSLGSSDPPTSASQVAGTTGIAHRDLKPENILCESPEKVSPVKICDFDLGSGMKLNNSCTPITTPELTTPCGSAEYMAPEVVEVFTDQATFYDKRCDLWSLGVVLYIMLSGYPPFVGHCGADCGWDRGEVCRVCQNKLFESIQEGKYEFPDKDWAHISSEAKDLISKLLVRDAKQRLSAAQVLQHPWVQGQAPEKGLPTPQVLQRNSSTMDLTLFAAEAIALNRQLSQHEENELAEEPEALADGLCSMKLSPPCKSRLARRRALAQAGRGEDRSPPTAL
T34 sequence (Q9Y2U5 whole entry): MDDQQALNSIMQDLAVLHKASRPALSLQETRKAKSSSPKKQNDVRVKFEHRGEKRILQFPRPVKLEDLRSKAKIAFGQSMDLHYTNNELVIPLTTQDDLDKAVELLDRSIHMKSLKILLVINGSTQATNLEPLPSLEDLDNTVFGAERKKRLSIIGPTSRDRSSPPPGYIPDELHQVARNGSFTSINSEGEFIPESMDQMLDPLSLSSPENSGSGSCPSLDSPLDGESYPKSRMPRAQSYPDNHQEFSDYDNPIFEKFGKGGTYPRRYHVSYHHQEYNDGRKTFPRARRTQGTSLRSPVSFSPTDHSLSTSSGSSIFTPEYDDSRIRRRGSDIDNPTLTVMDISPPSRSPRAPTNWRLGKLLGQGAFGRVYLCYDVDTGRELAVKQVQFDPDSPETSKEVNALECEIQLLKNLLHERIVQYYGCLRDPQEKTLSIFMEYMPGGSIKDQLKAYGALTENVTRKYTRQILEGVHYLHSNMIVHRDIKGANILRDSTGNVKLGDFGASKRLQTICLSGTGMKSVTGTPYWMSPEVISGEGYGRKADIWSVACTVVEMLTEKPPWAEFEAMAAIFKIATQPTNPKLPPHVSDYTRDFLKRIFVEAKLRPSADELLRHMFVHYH
T2 sequence (O00238 14-502): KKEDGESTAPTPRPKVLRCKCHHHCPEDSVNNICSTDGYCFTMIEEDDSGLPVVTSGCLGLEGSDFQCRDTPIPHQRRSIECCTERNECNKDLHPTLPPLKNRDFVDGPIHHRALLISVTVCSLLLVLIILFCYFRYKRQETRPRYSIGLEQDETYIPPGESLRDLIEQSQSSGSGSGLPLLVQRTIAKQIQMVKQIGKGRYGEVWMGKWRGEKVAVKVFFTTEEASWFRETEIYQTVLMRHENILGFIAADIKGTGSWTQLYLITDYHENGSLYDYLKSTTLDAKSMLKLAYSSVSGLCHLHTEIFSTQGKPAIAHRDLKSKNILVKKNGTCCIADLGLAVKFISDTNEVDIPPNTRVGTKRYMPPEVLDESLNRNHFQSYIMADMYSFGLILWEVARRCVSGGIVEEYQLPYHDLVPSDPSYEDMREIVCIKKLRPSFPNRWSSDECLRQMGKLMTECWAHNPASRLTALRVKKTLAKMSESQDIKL
T40 sequence (P16234 24-1089): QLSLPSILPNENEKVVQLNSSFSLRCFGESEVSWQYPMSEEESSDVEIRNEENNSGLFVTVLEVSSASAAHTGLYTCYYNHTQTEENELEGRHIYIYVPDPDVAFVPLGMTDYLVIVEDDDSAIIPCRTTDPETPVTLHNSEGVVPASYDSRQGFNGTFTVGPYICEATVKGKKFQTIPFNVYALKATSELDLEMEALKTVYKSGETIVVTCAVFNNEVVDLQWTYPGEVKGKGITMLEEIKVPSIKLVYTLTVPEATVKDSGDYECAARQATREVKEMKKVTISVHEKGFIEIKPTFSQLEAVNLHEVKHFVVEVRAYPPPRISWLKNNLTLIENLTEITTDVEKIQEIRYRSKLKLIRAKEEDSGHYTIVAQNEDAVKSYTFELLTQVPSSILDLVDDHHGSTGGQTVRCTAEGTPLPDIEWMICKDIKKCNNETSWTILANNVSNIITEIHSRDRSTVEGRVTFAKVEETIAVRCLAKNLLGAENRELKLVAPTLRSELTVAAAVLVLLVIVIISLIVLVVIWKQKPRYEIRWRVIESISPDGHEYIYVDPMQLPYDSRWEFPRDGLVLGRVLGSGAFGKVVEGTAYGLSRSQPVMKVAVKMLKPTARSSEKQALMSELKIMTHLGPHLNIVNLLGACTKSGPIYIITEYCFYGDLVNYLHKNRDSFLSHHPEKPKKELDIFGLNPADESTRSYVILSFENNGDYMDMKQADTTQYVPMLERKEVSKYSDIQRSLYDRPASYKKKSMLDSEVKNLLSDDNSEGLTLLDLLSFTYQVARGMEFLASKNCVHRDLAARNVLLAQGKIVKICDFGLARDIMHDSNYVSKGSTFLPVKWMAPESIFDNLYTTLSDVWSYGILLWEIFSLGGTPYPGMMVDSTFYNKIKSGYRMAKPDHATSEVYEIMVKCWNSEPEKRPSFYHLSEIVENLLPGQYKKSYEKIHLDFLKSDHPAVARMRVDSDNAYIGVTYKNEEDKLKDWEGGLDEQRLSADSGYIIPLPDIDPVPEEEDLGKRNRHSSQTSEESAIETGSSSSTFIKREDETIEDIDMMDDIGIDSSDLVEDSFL
T18 sequence (O75716 whole entry): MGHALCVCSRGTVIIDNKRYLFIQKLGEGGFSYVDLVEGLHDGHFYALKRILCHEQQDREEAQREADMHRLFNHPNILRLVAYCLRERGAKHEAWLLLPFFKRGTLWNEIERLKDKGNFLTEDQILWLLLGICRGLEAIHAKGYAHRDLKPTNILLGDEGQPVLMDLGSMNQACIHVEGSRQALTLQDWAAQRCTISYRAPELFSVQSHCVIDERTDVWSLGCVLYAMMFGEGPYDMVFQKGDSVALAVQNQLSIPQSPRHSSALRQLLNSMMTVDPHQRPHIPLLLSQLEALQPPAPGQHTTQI
T13 sequence (Q8IVW4 whole entry): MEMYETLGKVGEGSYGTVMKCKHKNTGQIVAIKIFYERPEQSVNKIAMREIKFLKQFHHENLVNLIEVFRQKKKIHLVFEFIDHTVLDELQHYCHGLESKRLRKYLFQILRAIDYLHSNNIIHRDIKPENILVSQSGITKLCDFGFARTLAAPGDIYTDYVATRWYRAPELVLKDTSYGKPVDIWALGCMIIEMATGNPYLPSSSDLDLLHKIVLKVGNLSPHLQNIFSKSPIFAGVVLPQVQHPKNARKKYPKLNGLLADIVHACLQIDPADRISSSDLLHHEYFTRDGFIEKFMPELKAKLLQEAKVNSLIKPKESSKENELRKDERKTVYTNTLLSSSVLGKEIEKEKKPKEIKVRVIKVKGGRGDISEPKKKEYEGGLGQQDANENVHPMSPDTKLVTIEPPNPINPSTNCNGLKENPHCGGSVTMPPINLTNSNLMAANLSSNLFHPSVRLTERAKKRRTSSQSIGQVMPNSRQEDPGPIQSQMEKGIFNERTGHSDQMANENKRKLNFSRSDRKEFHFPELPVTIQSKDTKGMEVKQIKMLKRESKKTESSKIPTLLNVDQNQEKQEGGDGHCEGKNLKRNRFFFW

SMILES: COc1ccccc1Nc1nc(-c2ccc(OC)c(OC)c2)cc2nccn12 [BAY derivative 6]
- % binding compared to no inhibitor control (CLK4): 100%
- % binding compared to no inhibitor control (BMPR1B): 100%
- % binding compared to no inhibitor control (NEK5): 72%
- % binding compared to no inhibitor control (EPHA6): 100%
- % binding compared to no inhibitor control (MKNK1): 72%
- % binding compared to no inhibitor control (CIT): 95%
- % binding compared to no inhibitor control (PRKCE): 100%
- % binding compared to no inhibitor control (MARK2): 65%
- % binding compared to no inhibitor control (ALK): 52%
- % binding compared to no inhibitor control (CAMK1): 100%
- % binding compared to no inhibitor control (ROCK1): 81%
- % binding compared to no inhibitor control (CDC2L1): 100%
- % binding compared to no inhibitor control (CDKL3): 100%
- % binding compared to no inhibitor control (DMPK2): 88%
- % binding compared to no inhibitor control (STK39): 97%
- % binding compared to no inhibitor control (CSNK1G3): 100%
- % binding compared to no inhibitor control (ERK4): 100%
- % binding compared to no inhibitor control (STK16): 47%
- % binding compared to no inhibitor control (MAPKAPK5): 100%
- % binding compared to no inhibitor control (MEK2): 100%
- % binding compared to no inhibitor control (MYO3A): 100%
- % binding compared to no inhibitor control (ARK5): 93%
- % binding compared to no inhibitor control (FGFR3): 100%
- % binding compared to no inhibitor control (BRAF): 100%
- % binding compared to no inhibitor control (PIK3CA): 100%
- % binding compared to no inhibitor control (WEE2): 100%
- % binding compared to no inhibitor control (STK35): 91%
- % binding compared to no inhibitor control (ERK5): 100%
- % binding compared to no inhibitor control (ASK2): 100%
- % binding compared to no inhibitor control (MEK4): 100%
- % binding compared to no inhibitor control (PIP5K1A): 86%
- % binding compared to no inhibitor control (PLK3): 100%
- % binding compared to no inhibitor control (LIMK2): 89%
- % binding compared to no inhibitor control (MAP3K2): 88%
- % binding compared to no inhibitor control (PRKX): 73%
- % binding compared to no inhibitor control (RIPK1): 100%
- % binding compared to no inhibitor control (CLK3): 100%
- % binding compared to no inhibitor control (MAP3K1): 100%
- % binding compared to no inhibitor control (DRAK1): 100%
- % binding compared to no inhibitor control (PDGFRA): 100%

SMILES: COc1ccc(-c2cc3nccn3c(Nc3ncccc3C(N)=O)n2)cc1OC.Cl.Cl [BAY61-3606, 2-[7-(3,4-dimethoxyphenyl)-imidazo [1,2-c]pyrimidin-5-ylamino] nicotinamide dihydrochloride, reference compound]
- % binding compared to no inhibitor control (CLK4): 11%
- % binding compared to no inhibitor control (BMPR1B): 77%
- % binding compared to no inhibitor control (NEK5): 86%
- % binding compared to no inhibitor control (EPHA6): 97%
- % binding compared to no inhibitor control (MKNK1): 52%
- % binding compared to no inhibitor control (CIT): 0.4%
- % binding compared to no inhibitor control (PRKCE): 30%
- % binding compared to no inhibitor control (MARK2): 63%
- % binding compared to no inhibitor control (ALK): 84%
- % binding compared to no inhibitor control (CAMK1): 62%
- % binding compared to no inhibitor control (ROCK1): 3.2%
- % inhibition ATP binding (ROCK1; ROCK1, KINOMEscan, 1 μM): 96.8%
- % binding compared to no inhibitor control (CDC2L1): 95%
- % binding compared to no inhibitor control (CDKL3): 100%
- % binding compared to no inhibitor control (DMPK2): 86%
- % binding compared to no inhibitor control (STK39): 46%
- % binding compared to no inhibitor control (CSNK1G3): 81%
- % binding compared to no inhibitor control (ERK4): 87%
- % binding compared to no inhibitor control (STK16): 30%
- % binding compared to no inhibitor control (MAPKAPK5): 100%
- % binding compared to no inhibitor control (MEK2): 86%
- % binding compared to no inhibitor control (MYO3A): 80%
- % binding compared to no inhibitor control (ARK5): 62%
- % binding compared to no inhibitor control (FGFR3): 100%
- % binding compared to no inhibitor control (BRAF): 90%
- % binding compared to no inhibitor control (PIK3CA): 92%
- % binding compared to no inhibitor control (WEE2): 100%
- % binding compared to no inhibitor control (STK35): 88%
- % binding compared to no inhibitor control (ERK5): 87%
- % binding compared to no inhibitor control (ASK2): 81%
- % binding compared to no inhibitor control (MEK4): 45%
- % binding compared to no inhibitor control (PIP5K1A): 64%
- % binding compared to no inhibitor control (PLK3): 37%
- % binding compared to no inhibitor control (LIMK2): 98%
- % binding compared to no inhibitor control (MAP3K2): 55%
- % binding compared to no inhibitor control (PRKX): 75%
- % binding compared to no inhibitor control (RIPK1): 86%
- % binding compared to no inhibitor control (CLK3): 100%
- % binding compared to no inhibitor control (MAP3K1): 100%
- % binding compared to no inhibitor control (DRAK1): 57%
- % binding compared to no inhibitor control (PDGFRA): 67%
